Reference: patent US20230286973A1, “PROTEIN SECRETION INHIBITORS” (KEZAR LIFE SCIENCES, priority 2020, published 2023)
Like-named read-outs stand apart in the source and are kept apart here.

Tests used:
[1] = Liver Microsome Stability Assay (human); details: human liver microsomes, with NADPH, 1.0 uM compound
Protocol: (§1) Stability of a compound was assessed in the presence of liver microsomes from various sources—mouse, rat, monkey and human liver microsomes. 1.0 uM compound, 0.4% DMSO in 0.1 M Potassium Phosphate with 1.0 mg/mL liver microsomes, were incubated at 37° C. with or without 1 mM NADPH. The samples were quenched at 0, and 30 minutes.

[2] = test system: IL-2-FL/Gaussia Luciferase; assay: Dox Induced IL2-FL-Gluc Assay; assay type: cell-based; details: for IC50: 24 hr Dox induction, 293FRT/TO cells, read-out: 24 hr Dox Inducible IL2FLGluc 293FRT/TO: Mean IC50; for 24 hr Dox Inducible IL2FLGluc 293FRT/TO: IL2/PD1: ratio of IL2FLGluc IC50 to PD1ssGluc IC50
In short: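 A hygromycin- and blasticidin-resistant 293 T-REx clone carrying inducible IL-2–Gaussia luciferase (full-length IL-2, residues 1-153) serves as the cell system. After overnight plating, the cells get test compounds together with doxycycline in DMSO/media and are incubated at 37° C, 5% CO2.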

[3] = test system: HER3-ss+4aa/Gaussia Luciferase; assay: Dox-Induced Her3-ss-Gluc Assay; assay type: cell-based; details: 24 hr Dox induction, 293FRT/TO cells, read-out: 24 hr Dox Inducible Her3(ss + 4)Gluc 293FRT/TO: Mean IC50
In short: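 Doxycycline-inducible HER3 signal sequence+4aa/Gaussia luciferase construct, stably integrated in Flp-In 293 T-REx cells; compound dilutions applied with doxycycline at 37° C., 5% CO2.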

[4] = test system: PD1-ss+10aa/Gaussia Luciferase; assay: Dox-Induced PD1-ss-Gluc Assay; assay type: cell-based; details: 24 hr Dox induction, 293FRT/TO cells, read-out: 24 hr Dox Inducible PD1ssGluc 293FRT/TO: Mean IC50
In short: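 Gaussia luciferase fused downstream of the PD1 signal peptide plus 10 residues was expressed on doxycycline induction in stably transfected Flp-In 293 T-REx cells. Compounds were added with doxycycline and incubated at 37 °C, 5% CO2.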

[5] = Liver Microsome Stability Assay (mouse); details: mouse liver microsomes, with NADPH, 1.0 uM compound
Protocol: as §1

[6] = test system: TNFα-FL/Gaussia Luciferase; assay: Dox Induced TNFα-FL-Gluc Assay; assay type: cell-based; details: for IC50: 24 hr Dox induction, 293FRT/TO cells, read-out: 24 hr Dox Inducible TNFaFLGluc 293FRT/TO: Mean IC50; for 24 hr Dox Inducible TNFaFLGluc 293FRT/TO: TNF/PD1: ratio of TNFaFLGluc IC50 to PD1ssGluc IC50
In short: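 Hygromycin/blasticidin-selected Flp-In 293 T-REx cells, TNFα-FL/Gaussia luciferase fusion under T-REx control; overnight plating, then compound in DMSO/media with doxycycline at 37 °C, 5% CO2; stereo-undefined structures tested as mixtures.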

[7] = Liver Microsome Stability Assay (monkey); details: monkey liver microsomes, with NADPH, 1.0 uM compound
Protocol: as §1

[8] = test system: multiple myeloma cell line NCI-H929; assay: H929 Cell Viability Assay; assay type: cell-based, human; details: Homo sapiens, NCI-H929, 48 h, NCI-H929 cells, Celltiter-Glo
In short: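 A 48-hour compound treatment of cells in 10% FBS RPMI medium was followed by luciferase-based viability quantification.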

[9] = test system: multiple myeloma cell line U266B1; assay: U266 Cell Viability Assay; assay type: cell-based, human; details: Homo sapiens, U-266, 48 h, U266B1 cells, Celltiter-Glo
In short: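 After growth in serum-supplemented RPMI 1640, cells received serially diluted compound in DMSO/media and were kept 48 hours before a CellTiter-Glo luminescence readout.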

[10] = Liver Microsome Stability Assay (rat); details: rat liver microsomes, with NADPH, 1.0 uM compound
Protocol: as §1

[11] = '<=>' given where both are I.A.

Compound	Liver Microsome Stability (Multiple Species): Human - % Remaining after 30 min w/NADPH [1]	IC50 ([2]; mean)	24 hr Dox Inducible IL2FLGluc 293FRT/TO: IL2/PD1 [2, 11]	IC50 ([3]; mean)	IC50 ([4]; mean)	Liver Microsome Stability (Multiple Species): Mouse - % Remaining after 30 min w/NADPH [5]	IC50 ([6]; mean)	24 hr Dox Inducible TNFaFLGluc 293FRT/TO: TNF/PD1 [6, 11]	Liver Microsome Stability (Multiple Species): Monkey - % Remaining after 30 min w/NADPH [7]	EC50 [8]	EC50 [9]	Liver Microsome Stability (Multiple Species): Rat - % Remaining after 30 min w/NADPH [10]	IC50 [2]	24 hr Dox Inducible IL2FLGluc 293FRT/TO: IL2/PD1 [2]	IC50 [3]	IC50 [4]	IC50 [6]	24 hr Dox Inducible TNFaFLGluc 293FRT/TO: TNF/PD1 [6]
N#CC[C@@H](O)Cn1cccc1C(=O)Nc1nc([C@H]2CCCN2c2ccccc2)cs1 [Compound C112, 1-((R)-3-cyano-2-hydroxypropyl)-N-(4-((R)-1-phenylpyrrolidin-2-yl)thiazol-2-yl)-1H-pyrrole-2-carboxamide]	23.6%	2290 nM	4.2	2240 nM	545 nM	3.03%	9740 nM	17.9	13.1%	20700 nM	> 25000 nM	12.6%	–	–	–	–	–	–
CC(=O)N1CCC(C)(Oc2ccc(N3CCC[C@@H]3c3csc(NC(=O)c4cccn4Cc4ccnc(F)c4)n3)cc2)CC1 [Compound A97, (R)-N-(4-(1-(4-((1-acetyl-4-methylpiperidin-4-yl)oxy)phenyl)pyrrolidin-2-yl)thiazol-2-yl)-1-((2-fluoropyridin-4-yl)methyl)-1H-pyrrole-2-carboxamide]	6.01%	–	–	–	–	0.22%	–	–	0.4%	448 nM	> 25000 nM	42.4%	32.8 nM	1.7	22.1 nM	18.8 nM	162 nM	8.64
CC(=O)N1CCC(Oc2ccc(N3CCC[C@@H]3c3csc(NC(=O)c4cccn4Cc4ccnc(F)c4)n3)cc2F)CC1 [Compound A102, (R)-N-(4-(1-(4-((1-acetylpiperidin-4-yl)oxy)-3-fluorophenyl)pyrrolidin-2-yl)thiazol-2-yl)-1-((2-fluoropyridin-4-yl)methyl)-1H-pyrrole-2-carboxamide]	8.26%	–	–	–	–	7.68%	–	–	1.22%	317 nM	> 25000 nM	19.7%	27.5 nM	1.8	16.9 nM	15 nM	121 nM	8.11
CN(C)c1ccc(N2CCC[C@@H]2c2csc(NC(=O)c3cccn3Cc3ccncc3)n2)cc1 [Compound A16, (R)-N-(4-(1-(4-(dimethylamino)phenyl)pyrrolidin-2-yl)thiazol-2-yl)-1-(pyridin-4-ylmethyl)-1H-pyrrole-2-carboxamide]	0.34%	–	–	–	–	0.26%	–	–	0.17%	119 nM	2140 nM	0.15%	10.6 nM	2.1	8.37 nM	5.06 nM	127 nM	25
COc1ccc(O[C@@H]2CCC[C@H](c3csc(NC(=O)c4cccn4Cc4ccncc4)n3)C2)nc1 [Compound E39, N-(4-((1S,3R)-3-((5-methoxypyridin-2-yl)oxy)cyclohexyl)thiazol-2-yl)-1-(pyridin-4-ylmethyl)-1H-pyrrole-2-carboxamide]	0.34%	449 nM	2.8	344 nM	159 nM	0.23%	1650 nM	10.3	0.19%	8430 nM	13900 nM	1.17%	–	–	–	–	–	–
